According to the NIST ThermoML archive (doi:10.1021/je0342825):

Experiment: xn = mol fraction of the nth substance listed
Conditions: 101.3 kPa, Liquid

CC(=O)O [acetic acid] + CCO
Conditions	mass density, 293.15 K [kg/m3]	mass density, 298.15 K [kg/m3]	mass density, 303.15 K [kg/m3]	speed of sound, 293.15 K [m/s]	speed of sound, 298.15 K [m/s]	speed of sound, 303.15 K [m/s]	viscosity, 293.15 K [mPa·s]	viscosity, 298.15 K [mPa·s]	viscosity, 303.15 K [mPa·s]
x1 = 0.0493	803.5	799.15	794.78	1168	1151	1133	1.19	1.083	0.989
x1 = 0.1004	817.3	812.87	808.39	1173	1156	1139	1.195	1.089	0.994
x1 = 0.1992	844.8	840.2	835.58	1182	1165	1148	1.23	1.12	1.023
x1 = 0.2971	871.59	866.86	862.09	1190	1172	1155	1.276	1.162	1.06
x1 = 0.3962	898.37	893.5	888.6	1195	1177	1160	1.336	1.215	1.108
x1 = 0.4961	924.97	919.96	914.93	1197	1179	1162	1.383	1.258	1.152
x1 = 0.5981	951.75	946.59	941.42	1196	1178	1160	1.432	1.297	1.183
x1 = 0.7031	978.85	973.55	968.23	1192	1175	1157	1.444	1.31	1.198
x1 = 0.7973	1002.17	996.74	991.29	1184	1166	1149	1.419	1.291	1.181
x1 = 0.8979	1026.4	1020.84	1015.28	1171	1153	1136	1.338	1.225	1.126
x1 = 0.9515	1038.72	1033.11	1027.5	1161	1143	1126	1.275	1.172	1.084
x1 = 1	1049.3	1043.65	1038	1149	1132	1115	1.211	1.115	1.034

CC(=O)O [acetic acid] + CCOC(C)=O
Conditions	mass density, 293.15 K [kg/m3]	mass density, 298.15 K [kg/m3]	mass density, 303.15 K [kg/m3]	speed of sound, 293.15 K [m/s]	speed of sound, 298.15 K [m/s]	speed of sound, 303.15 K [m/s]	viscosity, 293.15 K [mPa·s]	viscosity, 298.15 K [mPa·s]	viscosity, 303.15 K [mPa·s]
x1 = 0.0697	907.35	901.3	895.2	1165	1143	1121	0.473	0.446	0.422
x1 = 0.0988	910.56	904.53	898.44	1166	1144	1122	0.485	0.458	0.433
x1 = 0.196	920.61	914.62	908.59	1166	1144	1123	0.523	0.493	0.465
x1 = 0.2944	931.46	925.5	919.49	1165	1144	1123	0.561	0.528	0.498
x1 = 0.3968	943.68	937.74	931.77	1165	1143	1123	0.617	0.577	0.541
x1 = 0.5007	957.31	951.4	945.46	1163	1142	1122	0.668	0.627	0.589
x1 = 0.5967	971.28	965.4	959.5	1162	1141	1121	0.731	0.684	0.642
x1 = 0.7	987.79	981.94	976.09	1159	1140	1120	0.817	0.762	0.714
x1 = 0.7989	1005.47	999.66	993.85	1157	1137	1119	0.912	0.848	0.792
x1 = 0.8993	1025.8	1020.06	1014.32	1153	1135	1117	1.052	0.975	0.91
x1 = 0.9493	1037.09	1031.4	1025.69	1152	1134	1116	1.113	1.031	0.958
x1 = 1	1049.3	1043.65	1038	1149	1132	1115	1.211	1.115	1.034

CC(=O)O [acetic acid] + CO
Conditions	mass density, 293.15 K [kg/m3]	mass density, 298.15 K [kg/m3]	mass density, 303.15 K [kg/m3]	speed of sound, 293.15 K [m/s]	speed of sound, 298.15 K [m/s]	speed of sound, 303.15 K [m/s]	viscosity, 293.15 K [mPa·s]	viscosity, 298.15 K [mPa·s]	viscosity, 303.15 K [mPa·s]
x1 = 0.0498	811.92	807.17	802.41	1133	1116	1100	0.626	0.583	0.543
x1 = 0.1006	831.39	826.6	821.79	1143	1127	1111	0.676	0.628	0.585
x1 = 0.2016	867.61	862.71	857.79	1162	1146	1130	0.784	0.729	0.678
x1 = 0.2995	899.77	894.77	889.74	1178	1161	1145	0.899	0.825	0.765
x1 = 0.401	929.99	924.88	919.75	1189	1172	1156	1.038	0.954	0.879
x1 = 0.4992	956.37	951.16	945.92	1196	1179	1162	1.161	1.062	0.975
x1 = 0.5996	980.68	975.36	970.01	1198	1181	1164	1.274	1.162	1.062
x1 = 0.6998	1001.88	996.46	991.01	1195	1178	1161	1.352	1.229	1.124
x1 = 0.7969	1020.24	1014.72	1009.19	1187	1170	1153	1.38	1.26	1.151
x1 = 0.9	–	1031.06	1025.45	–	1156	1138	–	1.224	1.126
x1 = 0.9555	1043.82	1038.2	1032.56	1162	1145	1128	1.283	1.177	1.088
x1 = 1	1049.3	1043.65	1038	1149	1132	1115	1.211	1.115	1.034

CC(=O)O [acetic acid] + COC(C)=O
x1 = 1
Conditions	mass density [kg/m3]	speed of sound [m/s]	viscosity [mPa·s]
293.15 K	1049.3	1149	1.211
298.15 K	1043.65	1132	1.115
303.15 K	1038	1115	1.034
